Ten compounds from PubChem BioAssay (NCI) can be followed below.

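Where inhibition never reached the appropriate level, the endpoint shown equals the highest concentration tested. Otherwise, values were interpolated linearly from a five-concentration, 48-hour dose response in 96-well plates. At the TGI there is no net growth.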

Among the test systems are ACHN renal; BT-549 breast; EKVX NSCLC; HCC-2998 colon; HOP-92 NSCLC; HS 578T breast; M14 melanoma; MDA-N; NCI-H460 lung; PC-3 prostate; SF-295 CNS; U251 CNS; UACC-62 melanoma; NCI-H226 lung.
Holding throughout (test): inhibition of tumour cell growth, NCI panel, 48 h

`N=C(N)C1CN(CCc2cnc[nH]2)C(=O)NC1=O` (stereo unspecified): the TGI with ACHN renal, in the assay with BT-549 breast, in the assay with EKVX NSCLC, in the assay on HCC-2998 colon, in the assay on HOP-92 NSCLC and in the assay on HS 578T breast was over 100 µM in each case. Moreover, the TGI in the assay with M14 melanoma, in the assay with MDA-N, in the assay with NCI-H460 lung, in the assay with PC-3 prostate, with SF-295 CNS and in the assay with U251 CNS was over 100 µM in each case. Further, the TGI with UACC-62 melanoma is over 100 µM.

As for `COc1ccc(/C(CCl)=C(\Nc2ccccc2)c2ccc(OC)c(OC)c2)cc1OC`, the TGI in the assay on ACHN renal, in the assay on BT-549 breast, in the assay on EKVX NSCLC, in the assay on HCC-2998 colon, in the assay with HOP-92 NSCLC and in the assay on HS 578T breast was over 100 µM in each case. The TGI in the assay with M14 melanoma, with MDA-N, with NCI-H226 lung, in the assay with NCI-H460 lung, in the assay with PC-3 prostate and in the assay on SF-295 CNS was over 100 µM in each case. In addition, the TGI in the assay with U251 CNS and with UACC-62 melanoma was over 100 µM throughout.

In the case of `C[C@@]12c3c4ccc(C=O)c3Oc3ccc(C=O)c(c31)Oc1c(C=O)ccc(c12)O4`, the TGI in the assay with ACHN renal, with BT-549 breast, with EKVX NSCLC, with HCC-2998 colon, in the assay with HOP-92 NSCLC and in the assay with HS 578T breast was over 100 µM throughout. The TGI with M14 melanoma, with MDA-N, in the assay on NCI-H226 lung, with NCI-H460 lung, with PC-3 prostate and in the assay with SF-295 CNS was over 100 µM in each case. The TGI with U251 CNS and in the assay on UACC-62 melanoma was over 100 µM each time.

As to `CSc1c(C#N)c(O)n(-c2ccc(C)cc2)c(=O)c1C#N`, the TGI in the assay with BT-549 breast, in the assay on EKVX NSCLC, in the assay with HCC-2998 colon, with HOP-92 NSCLC, in the assay with HS 578T breast and in the assay with M14 melanoma was over 100 µM each time. For the same compound, the TGI in the assay with MDA-N, in the assay on NCI-H226 lung, with NCI-H460 lung, in the assay on PC-3 prostate, in the assay on U251 CNS and in the assay with UACC-62 melanoma was over 100 µM throughout.

With `COc1cc(O)c2c(=O)c(OC)c(-c3ccc4c(c3)OCO4)oc2c1`, the TGI in the assay on ACHN renal is over 100 µM; in the assay with BT-549 breast, over 30 µM; in the assay on EKVX NSCLC it was over 100 µM; in the assay on HCC-2998 colon, over 100 µM; in the assay with HOP-92 NSCLC, over 57.7 µM; in the assay on HS 578T breast, over 100 µM. The TGI with M14 melanoma is over 100 µM; in the assay on MDA-N, over 100 µM; with NCI-H226 lung, over 100 µM; in the assay on NCI-H460 lung, over 100 µM; in the assay with PC-3 prostate, over 100 µM; with SF-295 CNS, over 92.2 µM. Besides, the TGI is 30.2 µM in the assay on U251 CNS and over 100 µM with UACC-62 melanoma.

As for `CCOC(=O)N1CCN(c2c(C)nc(C)[nH]c2=O)CC1`, the TGI in the assay on ACHN renal, with BT-549 breast, with EKVX NSCLC, in the assay on HCC-2998 colon, in the assay with HOP-92 NSCLC and with HS 578T breast was over 100 µM each time. Also, the TGI with M14 melanoma, in the assay on MDA-N, in the assay with NCI-H226 lung, in the assay with NCI-H460 lung, in the assay on PC-3 prostate and with SF-295 CNS was over 100 µM in each case. Moreover, the TGI in the assay on U251 CNS and with UACC-62 melanoma was over 100 µM throughout.

On to `O=C(c1ccco1)C1CC(c2ccc3ccccc3c2O)=NN1` (stereo unspecified), for which the TGI with ACHN renal, with BT-549 breast, in the assay on HCC-2998 colon, with HOP-92 NSCLC, with HS 578T breast and with M14 melanoma was over 100 µM each time. For the same compound, the TGI with MDA-N, with NCI-H226 lung, with NCI-H460 lung, in the assay on PC-3 prostate, in the assay on SF-295 CNS and in the assay with U251 CNS was over 100 µM throughout. In the assay with UACC-62 melanoma, this compound gave a TGI of over 100 µM.

As to `C[C@]12CCC3c4ccc(O)cc4CC[C@H]3C1CC(=O)N(N)C2=O` (stereo partly specified), the TGI in the assay with ACHN renal, in the assay with BT-549 breast, in the assay on EKVX NSCLC, in the assay on HCC-2998 colon, in the assay on HOP-92 NSCLC and in the assay with HS 578T breast was over 100 µM each time. For the same compound, the TGI in the assay with M14 melanoma, with MDA-N, in the assay with NCI-H226 lung, in the assay on NCI-H460 lung, in the assay on PC-3 prostate and in the assay on SF-295 CNS was over 100 µM in each case. Further, the TGI in the assay on U251 CNS and in the assay on UACC-62 melanoma was over 100 µM in each case.

As to `COC(=O)C1=C(OC(=O)/C(=C/c2ccc(Cl)cc2Cl)c2ccc(Cl)cc2Cl)C(C(=O)OC)[C@@]2(O)[C@@H](C(=O)OC)[C@H](C)C[C@@H]1[C@@H]2C(=O)OC` (stereo partly specified), the TGI in the assay with ACHN renal, with BT-549 breast, in the assay on EKVX NSCLC, with HCC-2998 colon, with HOP-92 NSCLC and in the assay with HS 578T breast was over 100 µM throughout. The TGI in the assay on M14 melanoma, in the assay on MDA-N, in the assay with NCI-H226 lung, in the assay with NCI-H460 lung, in the assay with PC-3 prostate and in the assay with SF-295 CNS was over 100 µM throughout. The TGI in the assay on U251 CNS and in the assay on UACC-62 melanoma was over 100 µM throughout.

For the compound `CC1CC(C)[C@H](O)C([C@H](O)CC2CC(=O)N(C)C(=O)C2)C1` (stereo partly specified), the TGI in the assay with ACHN renal, in the assay on BT-549 breast, with EKVX NSCLC, in the assay on HCC-2998 colon, with HOP-92 NSCLC and in the assay with HS 578T breast was over 100 µM each time. Further, the TGI in the assay with M14 melanoma, in the assay on MDA-N, with NCI-H226 lung, in the assay on NCI-H460 lung, in the assay with PC-3 prostate and with SF-295 CNS was over 100 µM throughout. Also, the TGI with U251 CNS and in the assay with UACC-62 melanoma was over 100 µM in each case.
